# Test results reported in paper PMC12563652 (International Journal of Molecular Sciences, 2025).
# Columns and labels:
# human TAAR1 = biological target: T1, human TAAR1 (Homo sapiens, UniProt Q96RJ0); test: TAAR1 antagonist activity, Hit Hunter cAMP assay; format: cell-based; conditions: n.a. = no activity at 10–5 M; read-out: TAAR1 Ant EC50
# T1 sequence (Q96RJ0 1-339): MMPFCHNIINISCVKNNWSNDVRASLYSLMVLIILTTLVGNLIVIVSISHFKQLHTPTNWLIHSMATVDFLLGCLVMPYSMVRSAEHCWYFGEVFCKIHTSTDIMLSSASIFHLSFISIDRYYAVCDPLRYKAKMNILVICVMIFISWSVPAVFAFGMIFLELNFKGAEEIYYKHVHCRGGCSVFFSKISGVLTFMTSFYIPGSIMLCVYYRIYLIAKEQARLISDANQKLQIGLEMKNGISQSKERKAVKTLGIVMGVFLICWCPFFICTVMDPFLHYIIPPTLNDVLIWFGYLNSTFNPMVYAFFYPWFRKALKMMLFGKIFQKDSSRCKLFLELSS
# HepG2 cells = test: Glucose consumption (Amplex Red assay) in HepG2 cells; format: cell-based, human; conditions: 10 µM; relative to vehicle-treated cells
# Procedure: The HepG2 human hepatocellular carcinoma cell line (ATCC® HB-8065™) was cultured in DMEM supplemented with 10% FBS, 100 µg/mL streptomycin, and 100 IU/mL penicillin at 37 °C in 5% CO2. Cells were seeded in 96-well plates at a density of 10,000 cells/well and used for experiments 24 h after plating.
# Stock solutions of test compounds were prepared at a concentration of 10 mM in dimethyl sulfoxide (DMSO). At least 1 mg of each substance was carefully measured and mixed with the right amount of DMSO. A series of dilutions were made in DMSO and then further diluted in phosphate-buffered saline before being introduced into the cell culture medium. Precipitation or opalescence was assessed prior to application.
# The glucose uptake was measured with the Amplex® Red Glucose/Glucose Oxidase Assay Kit from Thermo Fisher Scientific, following the guidelines provided by the maker. Cell culture supernatants were collected and incubated with a reaction mix containing 100 μM Amplex® Red reagent, 0.2 U/mL horseradish peroxidase (HRP), and 1 U/mL glucose oxidase at room temperature for 30 min in the dark. Fluorescence was measured at 530 nm excitation and 590 nm emission using the POLARstar Omega plate reader (BMG Labtech).
# [1] = tested on: platelet aggregation in rat whole blood; test: In vitro collagen-induced platelet aggregation in rat whole blood (impedance aggregometry); format: cell-based; conditions: 100 µM, collagen 1.6 µg/mL
# Procedure: In vitro platelet aggregation assays were conducted using freshly collected whole blood from rats, utilizing the Multiplate platelet function analyzer (Roche Diagnostics, Mannheim, Germany)—a five-channel device that measures electrical impedance, following methods described previously. Upon stimulation, platelets adhere to and aggregate on dual metal sensors within the test cuvette, causing an increase in electrical resistance, which corresponds to the number of platelets attached to the electrodes.
# Blood was collected from the carotid artery of the rat into tubes coated with hirudin (S-Monovette, Sarstedt, Germany). A volume of 300 μL of the anticoagulated blood was mixed with 300 μL of prewarmed isotonic saline that contained the test compound or a vehicle control (0.1% DMSO) and incubated at 37 °C for 3 min under continuous stirring. Aggregation was triggered by adding collagen (final concentration: 1.6 µg/mL). Platelet activity was monitored for 6 min. Multiplate V2.04 software calculated the area under the curve (AUC) for each measurement to determine average platelet response.
# C57BL/6 mice = test: Inhibition of gastric emptying (mouse model, phenol red); format: in vivo; conditions: 5 mg/kg b.w. alone
# Procedure: Fifty male C57BL/6 mice (22–27 g) were housed in standard cages while maintaining a 12:12-h light/dark cycle, with food and water available ad libitum. The experimental procedures were performed from 10:00 a.m. to 14:00 p.m.
# The experiment was conducted according to Miyasaka et al. and Kotańska et al., with some minor modifications. Mice were subjected to a 20 h food deprivation and a 2 h water deprivation prior to testing. The animals received a vehicle (0.25 mL/mouse) alone or along with various compounds: JP-14 (10 mg/kg b. w.), RT (5 mg/kg body weight), metformin (100 mg/kg b. w.), or loperamide (reference compound; 10 mg/kg b. w.) via gastric gavage. Following a 45 min interval, phenol red (0.5 mL, 0.05% w/v) combined with glucose (1 g/kg body weight) was administered through the same route. Additionally, each group received an intraperitoneal injection of heparin (2500 U/mouse) 20 min prior to the collection of stomach contents. Seven mice treated with the vehicle were sacrificed immediately after the phenol red administration to serve as a standard control (representing 100% phenol red in the stomach at 0 min), establishing a baseline for maximum absorbance (100%). The leftover mice were sacrificed 30 min later. The stomachs were removed and homogenized using an OMNI homogenizer (OMNI International Company, Kennesaw, GA, USA), with 10 mL of 0.1 N NaOH. To 5 mL of homogenate, 0.5 mL of 20% w/v solution of trichloroacetic acid was incorporated to precipitate the proteins. Subsequently, the samples were centrifuged at 600× g for 15 min at a temperature of 20 °C, and 0.25 mL of supernatant was mixed with 1 mL of 0.5 N NaOH to achieve maximum color intensity. The concentration of phenol red was measured using spectrophotometry, with absorbance evaluated at a wavelength of 560 nm (MuLTISKAN.GO, Thermo Fisher Scientific Inc., Waltham, MA USA). For each mouse, the percentage of gastric emptying (GE %) was calculated using the following equation:(1) GE%=(Ac0−Ab)/(Ac0−Ac30)×100% where: Ac0 is the absorbance of the control gastric sample collected immediately after dye administration, and Ac30 is the absorbance of the control gastric sample collected 30 min after dye administration, i.e., Ac0–Ac30 = 100% gastric emptying.
smiles,measurement,setting,value
N#Cc1c(C(F)(F)F)cc(-c2ccc(Cl)cc2)nc1SCC(=O)Nc1ncccn1 [RTI-7470-44],EC50,human TAAR1,168 ± 50.7 nM
same,increase in glucose consumption (uptake),HepG2 cells,no significant changes
same,reduction of collagen-induced platelet aggregation,[1],41.75%
same,effect on gastric emptying,C57BL/6 mice,did not affect emptying
